These are literature values, as cited in US7365077B2, “Piperazine bis-amide derivatives and their use as antagonists of the orexin receptor” (SmithKline Beecham p.l.c., priority 2001, dated 2008).

No end group written: not given here.

The subject of one series is freely-feeding rats. The settings on record: central administration, 4 hour time period.
Another series has as its system orexin receptors. As to conditions: central administration at the onset of the normal sleep period, rat.

Regarding “orexin-A: Peptide ligand (agonist) of the orexin receptors; human sequence given in b87 (QPLPDCCRQKTCSCRLYELLHGAGNHAAGILTL; ends and bridges not checked; cysteine pairing not given here; UniProt O43612 34-66, looked up)”, the “increase in food intake over control rats receiving vehicle” value in the series on freely-feeding rats was “approximately four-fold”. For the same substance, the effect on arousal entry in the series on orexin receptors is on record as “dose-related increase in arousal”.
